Measured values as given in ChEMBL document CHEMBL1201862, “PubChem BioAssay data set” (2004).
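Each compound was tested at five concentrations against cells in 96-well plates for 48 hours. Here, GI50 denotes the concentration required for 50% inhibition of growth.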 The source made the active and inactive calls. Rule as the data show it: active = GI50 up to about 1.1 µM and inactive = higher.

Tests used:
Experiment in all cases: NCI anticancer screen, dose series, 48 h
ACHN = system: ACHN
HOP-62 = system: HOP-62
HOP-92 = system: HOP-92
HT-29 = system: HT-29
IGROV-1 = system: IGROV-1
K562 = system: K562
KM12 = system: KM12
NCI-H23 = system: NCI-H23
OVCAR-3 = system: OVCAR-3
OVCAR-4 = system: OVCAR-4
OVCAR-8 = system: OVCAR-8
SNB-19 = system: SNB-19
SNB-75 = system: SNB-75
SW-620 = system: SW-620
TK-10 = system: TK-10
RXF 393 = system: RXF 393
SR = system: SR

SMILES	GI50 (ACHN)	GI50 (HOP-62)	GI50 (HOP-92)	GI50 (HT-29)	GI50 (IGROV-1)	GI50 (K562)	GI50 (KM12)	GI50 (NCI-H23)	GI50 (OVCAR-3)	GI50 (OVCAR-4)	GI50 (OVCAR-8)	GI50 (SNB-19)	GI50 (SNB-75)	GI50 (SW-620)	GI50 (TK-10)	GI50 (RXF 393)	GI50 (SR)
Cc1ccc2nc(NC(=O)C(=O)CC(=O)c3cccc4ccccc34)sc2c1	41.9 µM (inactive)	22.2 µM (inactive)	14.8 µM (inactive)	36 µM (inactive)	31.7 µM (inactive)	31.5 µM (inactive)	29.1 µM (inactive)	50.8 µM (inactive)	19.9 µM (inactive)	16.2 µM (inactive)	23.4 µM (inactive)	39.7 µM (inactive)	16.9 µM (inactive)	38.9 µM (inactive)	24.1 µM (inactive)		
O=C(C#Cc1ccccc1)Nc1ccccc1CC(c1c[nH]c2ccccc12)c1c[nH]c2ccccc12		39.6 µM (inactive)		10.3 µM (inactive)	16.3 µM (inactive)	4.47 µM (inactive)	14.7 µM (inactive)	15.4 µM (inactive)	9.44 µM (inactive)		8.32 µM (inactive)	26 µM (inactive)	5.9 µM (inactive)	12.1 µM (inactive)	31.5 µM (inactive)	3.02 µM (inactive)	
O=C1c2cccc3cc([N+](=O)[O-])cc(c23)C(=O)N1CCCN1CCN(CCCN2C(=O)c3cccc4cc([N+](=O)[O-])cc(c34)C2=O)CC1	< 0.01 µM (active)	2.88 µM (inactive)	0.237 µM (active)	< 0.01 µM (active)	0.0628 µM (active)	0.0232 µM (active)	0.063 µM (active)	0.859 µM (active)	1.09 µM (active)	0.0925 µM (active)	< 0.01 µM (active)	0.122 µM (active)	1.38 µM (inactive)	0.0284 µM (active)	0.798 µM (active)	0.0933 µM (active)	
O=C1CCC(=O)C12CCc1cccc(O)c12	> 100 µM (inactive)	> 100 µM (inactive)	> 100 µM (inactive)	> 100 µM (inactive)	> 100 µM (inactive)	> 100 µM (inactive)		> 100 µM (inactive)	> 100 µM (inactive)	> 100 µM (inactive)	> 100 µM (inactive)		39 µM (inactive)	> 100 µM (inactive)	> 100 µM (inactive)	> 100 µM (inactive)	
CCCOC(=O)C1CCC(=O)N1C(=O)C(C)Cl (stereo not drawn)	> 100 µM (inactive)	> 100 µM (inactive)	> 100 µM (inactive)	> 100 µM (inactive)	> 100 µM (inactive)	> 100 µM (inactive)	> 100 µM (inactive)	> 100 µM (inactive)	> 100 µM (inactive)	> 100 µM (inactive)	> 100 µM (inactive)	> 100 µM (inactive)	> 100 µM (inactive)	> 100 µM (inactive)	> 100 µM (inactive)		
O=C(O)CNCc1c2ccccc2[n+]([O-])c2ccccc12	57.4 µM (inactive)	> 100 µM (inactive)	16.9 µM (inactive)	57.1 µM (inactive)	91.6 µM (inactive)	38.2 µM (inactive)	51.1 µM (inactive)	69.3 µM (inactive)	> 100 µM (inactive)	49.3 µM (inactive)	80.5 µM (inactive)	> 100 µM (inactive)	34.5 µM (inactive)	47 µM (inactive)	> 100 µM (inactive)		
COc1ccc(OC)c(NC(=O)C2=C(C)NC(C)=C(C(=O)Nc3cc(OC)ccc3OC)C2c2ccco2)c1	> 100 µM (inactive)	> 100 µM (inactive)	> 100 µM (inactive)	> 100 µM (inactive)	> 100 µM (inactive)	> 100 µM (inactive)	> 100 µM (inactive)	> 100 µM (inactive)	> 100 µM (inactive)		> 100 µM (inactive)	> 100 µM (inactive)	> 100 µM (inactive)	> 100 µM (inactive)	> 100 µM (inactive)		64.6 µM (inactive)
COc1ccc(OC)c(/C=C2\CCc3ccccc3C2=O)c1	7.26 µM (inactive)	2.47 µM (inactive)	1.23 µM (inactive)	0.735 µM (active)	11.4 µM (inactive)	0.391 µM (active)	3.05 µM (inactive)	3.39 µM (inactive)	2.71 µM (inactive)	6.52 µM (inactive)	4.16 µM (inactive)	5.6 µM (inactive)	1.1 µM (active)	1.12 µM (active)	5.16 µM (inactive)	1.76 µM (inactive)	
COC(=O)C(=O)C(C#N)c1cccc(Cl)c1 (stereo not drawn)	> 100 µM (inactive)	> 100 µM (inactive)		> 100 µM (inactive)	> 100 µM (inactive)	> 100 µM (inactive)	> 100 µM (inactive)	> 100 µM (inactive)	> 100 µM (inactive)	> 100 µM (inactive)	> 100 µM (inactive)	> 100 µM (inactive)	> 100 µM (inactive)	> 100 µM (inactive)	> 100 µM (inactive)	> 100 µM (inactive)	> 100 µM (inactive)
CCOC(=O)c1c[nH]c2c(ccc3ncccc32)c1=O	> 100 µM (inactive)	> 100 µM (inactive)		> 100 µM (inactive)	> 100 µM (inactive)	> 100 µM (inactive)	> 100 µM (inactive)	> 100 µM (inactive)	> 100 µM (inactive)	> 100 µM (inactive)	> 100 µM (inactive)	> 100 µM (inactive)	> 100 µM (inactive)	> 100 µM (inactive)	> 100 µM (inactive)	> 100 µM (inactive)	> 100 µM (inactive)
CCOc1ccc(O)cc1[P+](c1ccccc1)(c1ccccc1)c1ccccc1	16.2 µM (inactive)	8.41 µM (inactive)		2.85 µM (inactive)		1.49 µM (inactive)	1.64 µM (inactive)	1.67 µM (inactive)	0.804 µM (active)	6.22 µM (inactive)	3.42 µM (inactive)	3.33 µM (inactive)	4.5 µM (inactive)		3.43 µM (inactive)	3.59 µM (inactive)	
N/C(=C\c1ccc(OCc2ccccc2)c(OCc2ccccc2)c1[N+](=O)[O-])C(=O)O	> 100 µM (inactive)	> 100 µM (inactive)	> 100 µM (inactive)	> 100 µM (inactive)	> 100 µM (inactive)	> 100 µM (inactive)	> 100 µM (inactive)	> 100 µM (inactive)	> 100 µM (inactive)		> 100 µM (inactive)	> 100 µM (inactive)	> 100 µM (inactive)	> 100 µM (inactive)	> 100 µM (inactive)	> 100 µM (inactive)	> 100 µM (inactive)
COc1ccc(/C(Cl)=C/c2cc(OC)ccc2OC)cc1	65.8 µM (inactive)	> 100 µM (inactive)	40.8 µM (inactive)	62.2 µM (inactive)	> 100 µM (inactive)	47 µM (inactive)		53 µM (inactive)		> 100 µM (inactive)	61.9 µM (inactive)	> 100 µM (inactive)	40.1 µM (inactive)	48.1 µM (inactive)		20.5 µM (inactive)	30.6 µM (inactive)
CCCCN(CCCC)CC(C(=O)Nc1ccc([N+](=O)[O-])cc1[N+](=O)[O-])/C(C)=N\NC(=S)NN (stereo not drawn)	56.6 µM (inactive)	> 100 µM (inactive)	42.1 µM (inactive)	> 100 µM (inactive)	> 100 µM (inactive)	40.7 µM (inactive)	> 100 µM (inactive)	> 100 µM (inactive)	84.3 µM (inactive)		> 100 µM (inactive)		> 100 µM (inactive)	> 100 µM (inactive)	> 100 µM (inactive)	96.2 µM (inactive)	
Cc1ccc(O)c(/N=N/c2ccc(S(=O)(=O)O)cc2)n1	> 100 µM (inactive)		> 100 µM (inactive)		> 100 µM (inactive)	> 100 µM (inactive)		> 100 µM (inactive)			> 100 µM (inactive)			> 100 µM (inactive)	> 100 µM (inactive)	> 100 µM (inactive)	
COC(=O)CC(C(C(=O)OC)C(=O)OC)N1C(=O)OC(c2ccccc2)C1c1ccccc1 (stereo not drawn)	> 100 µM (inactive)	> 100 µM (inactive)	> 100 µM (inactive)	> 100 µM (inactive)	> 100 µM (inactive)	> 100 µM (inactive)	> 100 µM (inactive)	> 100 µM (inactive)	> 100 µM (inactive)	> 100 µM (inactive)	> 100 µM (inactive)	> 100 µM (inactive)	> 100 µM (inactive)	26.1 µM (inactive)	> 100 µM (inactive)	74.5 µM (inactive)	
CC1=C(N(C)C)C(=O)c2nc3n(c2C1=O)CCC3OC(N)=O (stereo not drawn)	16.7 µM (inactive)	17.6 µM (inactive)	14.8 µM (inactive)	19.7 µM (inactive)	16.8 µM (inactive)	18.5 µM (inactive)	17.2 µM (inactive)	13.8 µM (inactive)	16.8 µM (inactive)	19.9 µM (inactive)	16.7 µM (inactive)	17.5 µM (inactive)	23.7 µM (inactive)	18.7 µM (inactive)	18.2 µM (inactive)		31.3 µM (inactive)
Cc1c(O)c(=O)ccn1CCN	> 100 µM (inactive)		> 100 µM (inactive)	> 100 µM (inactive)	> 100 µM (inactive)	> 100 µM (inactive)	> 100 µM (inactive)	> 100 µM (inactive)		> 100 µM (inactive)	> 100 µM (inactive)	> 100 µM (inactive)	> 100 µM (inactive)	> 100 µM (inactive)	> 100 µM (inactive)	> 100 µM (inactive)	
